From the supplement of paper PMC4628005

Legend:
Details in all cases: drug exposure time: 96 h
Erlotinib = compound: C#Cc1cccc(Nc2ncnc3cc(OCCOC)c(OCCOC)cc23)c1 [Erlotinib]
Procedure: (§1)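 Breast cancer cell lines were grown in RPMI 1640 with 10% FBS on collagen I-coated 96-well plates and treated for 96 h (from 24 h after seeding) with 12 dilutions per drug, in triplicate. Growth was read by sulforhodamine B total-protein staining (absorbance 570 nm) relative to diluent control, and IC50 was calculated. The top dose was 1e-5 M for most drugs; Bortezomib went to 2e-5 M and Sirolimus and 17-AAG to 2e-6 M[…].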

Docetaxel = compound: CC(=O)O[C@@]12CO[C@@H]1C[C@H](O)[C@@]1(C)C(=O)[C@H](O)C3=C(C)[C@@H](OC(=O)[C@H](O)[C@@H](NC(=O)OC(C)(C)C)c4ccccc4)C[C@@](O)([C@@H](OC(=O)c4ccccc4)[C@H]21)C3(C)C [Docetaxel]
Procedure: as §1

Paclitaxel = compound: CC(=O)O[C@H]1C(=O)[C@@]2(C)[C@H]([C@H](OC(=O)c3ccccc3)[C@]3(O)C[C@H](OC(=O)[C@H](O)[C@@H](NC(=O)c4ccccc4)c4ccccc4)C(C)=C1C3(C)C)[C@]1(OC(C)=O)CO[C@@H]1C[C@@H]2O [Paclitaxel]
Procedure: as §1

MI-219 = compound: CC(C)(C)C[C@H]1N[C@@H](C(=O)NCC[C@H](O)CO)[C@H](c2cccc(Cl)c2)[C@@]12C(=O)Nc1cc(Cl)c(F)cc12 [MI-219]
Procedure: as §1

Tamoxifen = compound: CC/C(=C(\c1ccccc1)c1ccc(OCCN(C)C)cc1)c1ccccc1 [Tamoxifen]
Procedure: as §1

Sunitinib = compound: CCN(CC)CCNC(=O)c1c(C)[nH]c(/C=C2\C(=O)Nc3ccc(F)cc32)c1C [Sunitinib]
Procedure: as §1

Methotrexate = compound: CN(Cc1cnc2nc(N)nc(N)c2n1)c1ccc(C(=O)N[C@@H](CCC(=O)O)C(=O)O)cc1 [Methotrexate]
Procedure: as §1

Sorafenib = compound: CNC(=O)c1cc(Oc2ccc(NC(=O)Nc3ccc(Cl)c(C(F)(F)F)c3)cc2)ccn1 [Sorafenib]
Procedure: as §1

Vandetanib = compound: COc1cc2/c(=N/c3ccc(Br)cc3F)nc[nH]c2cc1OCC1CCN(C)CC1 [Vandetanib]
Procedure: as §1

Gefitinib = compound: COc1cc2ncnc(Nc3ccc(F)c(Cl)c3)c2cc1OCCCN1CCOCC1 [Gefitinib]
Procedure: as §1

Nutlin-3 = compound: COc1ccc(C2=N[C@@H](c3ccc(Cl)cc3)[C@@H](c3ccc(Cl)cc3)N2C(=O)N2CCNC(=O)C2)c(OC(C)C)c1 [Nutlin-3]
Procedure: as §1

Lapatinib = compound: CS(=O)(=O)CCNCc1ccc(-c2ccc3ncnc(Nc4ccc(OCc5cccc(F)c5)c(Cl)c4)c3c2)o1 [Lapatinib]
Procedure: as §1

Panobinostat = compound: Cc1[nH]c2ccccc2c1CCNCc1ccc(/C=C/C(=O)NO)cc1 [Panobinostat]
Procedure: as §1

Brivanib = compound: Cc1cc2c(F)c(Oc3ncnn4cc(OC[C@@H](C)O)c(C)c34)ccc2[nH]1 [Brivanib]
Procedure: as §1

Dasatinib = compound: Cc1nc(Nc2ncc(C(=O)Nc3c(C)cccc3Cl)s2)cc(N2CCN(CCO)CC2)n1 [Dasatinib]
Procedure: as §1

Quisinostat = compound: Cn1cc(CNCC2CCN(c3ncc(C(=O)NO)cn3)CC2)c2ccccc21 [Quisinostat]
Procedure: as §1

Azacitidine = compound: Nc1ncn([C@@H]2O[C@H](CO)[C@@H](O)[C@H]2O)c(=O)n1 [Azacitidine]
Procedure: as §1

Decitabine = compound: Nc1ncn([C@H]2C[C@H](O)[C@@H](CO)O2)c(=O)n1 [Decitabine]
Procedure: as §1

Belinostat = compound: O=C(/C=C/c1cccc(S(=O)(=O)Nc2ccccc2)c1)NO [Belinostat]
Procedure: as §1

Vorinostat = compound: O=C(CCCCCCC(=O)Nc1ccccc1)NO [Vorinostat]
Procedure: as §1

Mitoxantrone = compound: O=C1c2c(O)ccc(O)c2C(=O)c2c(NCCNCCO)ccc(NCCNCCO)c21 [Mitoxantrone]
Procedure: as §1

5-Fluorouracil = compound: O=c1[nH]cc(F)c(=O)[nH]1 [5-Fluorouracil]
Procedure: as §1

Serdemetan = compound: c1ccc2c(CCNc3ccc(Nc4ccncc4)cc3)c[nH]c2c1 [Serdemetan]
Procedure: as §1

17-AAG = compound: C=CCNC1=C2C[C@@H](C)C[C@H](OC)[C@H](O)[C@@H](C)/C=C(\C)[C@H](OC(N)=O)[C@@H](OC)/C=C\C=C(/C)C(=O)NC(=CC1=O)C2=O [17-AAG]
Procedure: (§2)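 Same SRB 96 h IC50 screen on breast cancer cell lines (RPMI 1640 + 10% FBS, collagen I-coated 96-well plates, triplicates, 12 dilutions), for drugs with a different dose range: Bortezomib up to 2e-5 M; Sirolimus and 17-AAG up to 2e-6 M. Sirolimus values at the 2e-6 M top dose are censored.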

Bortezomib = compound: CC(C)C[C@H](NC(=O)[C@H](Cc1ccccc1)NC(=O)c1cnccn1)B(O)O [Bortezomib]
Procedure: as §2

Sirolimus = compound: CO[C@H]1C[C@@H]2CC[C@@H](C)[C@@](O)(O2)C(=O)C(=O)N2CCCC[C@H]2C(=O)O[C@H]([C@H](C)C[C@@H]2CC[C@@H](O)[C@H](OC)C2)CC(=O)[C@H](C)/C=C(\C)[C@@H](O)[C@@H](OC)C(=O)[C@H](C)C[C@H](C)/C=C/C=C/C=C/1C [Sirolimus]
Procedure: as §2

Doxorubicin = compound: COc1cccc2c1C(=O)c1c(O)c3c(c(O)c1C2=O)C[C@@](O)(C(=O)CO)C[C@@H]3O[C@H]1C[C@H](N)[C@H](O)[C@H](C)O1 [Doxorubicin]
Procedure: as §1

Cisplatin = compound: N.N.[Cl][Pt][Cl] [Cisplatin]
Procedure: as §1

Test System | IC50 (SRB growth assay) (Erlotinib) [nM] | IC50 (SRB growth assay) (Docetaxel) [nM] | IC50 (SRB growth assay) (Paclitaxel) [nM] | IC50 (SRB growth assay) (MI-219) [nM] | IC50 (SRB growth assay) (Tamoxifen) [nM] | IC50 (SRB growth assay) (Sunitinib) [nM] | IC50 (SRB growth assay) (Methotrexate) [nM] | IC50 (SRB growth assay) (Sorafenib) [nM] | IC50 (SRB growth assay) (Vandetanib) [nM] | IC50 (SRB growth assay) (Gefitinib) [nM] | IC50 (SRB growth assay) (Nutlin-3) [nM] | IC50 (SRB growth assay) (Lapatinib) [nM] | IC50 (SRB growth assay) (Panobinostat) [nM] | IC50 (SRB growth assay) (Brivanib) [nM] | IC50 (SRB growth assay) (Dasatinib) [nM] | IC50 (SRB growth assay) (Quisinostat) [nM] | IC50 (SRB growth assay) (Azacitidine) [nM] | IC50 (SRB growth assay) (Decitabine) [nM] | IC50 (SRB growth assay) (Belinostat) [nM] | IC50 (SRB growth assay) (Vorinostat) [nM] | IC50 (SRB growth assay) (Mitoxantrone) [nM] | IC50 (SRB growth assay) (5-Fluorouracil) [nM] | IC50 (SRB growth assay) (Serdemetan) [nM] | IC50 (SRB growth assay) (17-AAG) [nM] | IC50 (SRB growth assay) (Bortezomib) [nM] | IC50 (SRB growth assay) (Sirolimus) [nM] | IC50 (SRB growth assay) (Doxorubicin) [nM] | IC50 (SRB growth assay) (Cisplatin) [nM]
MDA-MB-175 VII | > 10000 | 6.87 | 7.47 | 1360 | 7370 | > 10000 | 595 | 6470 | 2450 | > 10000 | 3740 | > 10000 | 15.2 | > 10000 | 513 | 14.8 | > 10000 | > 10000 | 493 | 898 | 12.6 | 4180 | 4890 | 15 | 8 | 1.27 | – | –
SUM 190 PT | 5250 | 0.883 | 1.91 | > 10000 | 8040 | 3870 | > 10000 | 2060 | 4540 | > 10000 | > 10000 | > 10000 | 78 | > 10000 | 223 | 72.4 | > 10000 | > 10000 | 4610 | 4730 | 20.8 | > 10000 | 871 | 79.5 | 6.51 | 0.548 | – | –
SUM 159 PT | 5260 | 0.71 | 2.95 | > 10000 | 6360 | 1960 | 2.36 | 3730 | 5260 | > 10000 | > 10000 | 46.7 | 8.19 | > 10000 | 4060 | 8.78 | > 10000 | 46.7 | 213 | 475 | 1.24 | 1680 | 547 | 4.73 | 3.27 | 0.288 | – | –
SUM 1315 MO2 | > 10000 | 1.54 | 3.29 | > 10000 | > 10000 | 4280 | 138 | 5570 | 2590 | > 10000 | > 10000 | 6720 | 31.7 | 7200 | 53.7 | 29.6 | 3600 | – | 703 | 1190 | 2.7 | > 10000 | 1190 | 55.1 | 6.55 | 0.917 | 17.5 | > 10000
SUM 229 PE | 7630 | 0.539 | 1.46 | > 10000 | 4170 | 3320 | 25.7 | 5640 | 1870 | 7560 | > 10000 | 27.2 | 25.1 | > 10000 | 387 | 10.6 | > 10000 | 27.2 | 1000 | 1820 | 6.3 | 2960 | 292 | 19.8 | 5.42 | 0.201 | – | –
HCC 1937 | > 10000 | 1.08 | 4.02 | > 10000 | 5720 | 6000 | 65.5 | 6230 | 4060 | > 10000 | > 10000 | 1930 | 42.1 | > 10000 | 4730 | 43.9 | > 10000 | 1930 | 572 | 1760 | 76.6 | 5280 | 1050 | 26.7 | 5.14 | 5.98 | – | –
BT 549 | 6100 | 0.598 | 1.44 | > 10000 | 7410 | 3290 | 22.4 | 6040 | 3410 | > 10000 | > 10000 | 256 | 11.1 | 6300 | 565 | 12.4 | > 10000 | 256 | 436 | 764 | 1.88 | 3720 | 1260 | 58.4 | 3.97 | 0.597 | – | –
SUM 149 PT | 766 | 0.226 | 1.31 | > 10000 | 5210 | 3430 | 10.6 | 5590 | 877 | 2860 | > 10000 | 81 | 8.96 | > 10000 | 70.6 | 6.79 | > 10000 | 81 | 171 | 515 | 1 | 7760 | 608 | 17.7 | 5.35 | 10.7 | – | –
